Reference: US8063048B2, “Acetylenyl-pyrazolo-pyrimidine derivatives” (Hoffmann-La Roche Inc., priority 2005, dated 2011)

Cc1cc(-c2ccc(C(F)(F)F)cc2)cn2c(C#Cc3cncc(S(N)(=O)=O)c3)cnc12 [Example 229, 5-[8-Methyl-6-(4-trifluoromethyl-phenyl)-imidazo[1,2-a]pyridin-3-ylethynyl]-pyridine-3-sulfonic acid amide]
melting point: 294 °C

Cc1cc(-c2ccc(Cl)cc2)cn2c(C#Cc3cncc(S(=O)(=O)NC(C)(C)CO)c3)cnc12 [Example 230, 5-[6-(4-Chloro-phenyl)-8-methyl-imidazo[1,2-a]pyridin-3-ylethynyl]-pyridine-3-sulfonic acid (2-hydroxy-1,1-dimethyl-ethyl)-amide]
melting point: 215 to 217 °C

Cc1cc(-c2ccc(Cl)cc2)cn2c(C#Cc3cnc(N)nc3)cnc12 [Example 221, 5-[6-(4-Chloro-phenyl)-8-methyl-imidazo[1,2-a]pyridin-3-ylethynyl]-pyrimidin-2-ylamine]
melting point: 263 °C

NS(=O)(=O)c1cccc(C#Cc2cnn3c(C4CC4)cc(-c4ccc(C(F)(F)F)cc4)nc23)c1 [Example 84, 3-[7-Cyclopropyl-5-(4-trifluoromethyl-phenyl)-pyrazolo[1,5-a]pyrimidin-3-ylethynyl]-benzenesulfonamide]
melting point: 262 to 264 °C

O=S(=O)(NCc1ccncc1)c1ccc(C#Cc2cnn3c(C(F)F)cc(-c4ccc(C(F)(F)F)cc4)nc23)s1 [Example 277, 5-[7-Difluoromethyl-5-(4-trifluoromethyl-phenyl)-pyrazolo[1,5-a]pyrimidin-3-ylethynyl]-thiophene-2-sulfonic acid (pyridin-4-ylmethyl)-amide]
melting point: 141 °C

NS(=O)(=O)c1cncc(C#Cc2cnn3c(C(F)(F)F)cc(-c4ccc(C(F)(F)F)cc4)nc23)c1 [Example 5, 5-[7-Trifluoromethyl-5-(4-trifluoromethyl-phenyl)-pyrazolo[1,5-a]pyrimidin-3-ylethynyl]-pyridine-3-sulfonic acid amide]
melting point: 239 to 240 °C

CS(=O)(=O)c1cncc(C#Cc2cnn3c(C(F)(F)F)cc(-c4ccc(C(F)(F)F)cc4)nc23)c1 [Example 38, 3-(5-Methanesulfonyl-pyridin-3-ylethynyl)-7-trifluoromethyl-5-(4-trifluoromethyl-phenyl)-pyrazolo[1,5-a]pyrimidine]
melting point: 241 to 242 °C

Cc1cc(-c2ccc(Cl)cc2)nc2c(C#Cc3cnc(N)nc3)cnn12 [Example 316, 5-[5-(4-Chloro-phenyl)-7-methyl-pyrazolo[1,5-a]pyrimidin-3-ylethynyl]-pyrimidin-2-ylamine]
melting point: 280 to 282 °C

FC(F)(F)c1ccc(-c2cc(C(F)(F)F)n3ncc(C#Cc4ccncc4)c3n2)cc1 [Example 7, 3-Pyridin-4-ylethynyl-7-trifluoromethyl-5-(4-trifluoromethyl-phenyl)-pyrazolo[1,5-a]pyrimidine]
melting point: 252 to 256 °C

Nc1ncc(C#Cc2cnc3c(F)cc(-c4ccc(C(F)(F)F)cc4)cn23)cn1 [Example 240, 5-[8-Fluoro-6-(4-trifluoromethyl-phenyl)-imidazo[1,2-a]pyridin-3-ylethynyl]-pyrimidin-2-ylamine]
melting point: 286 °C

NS(=O)(=O)c1cncc(C#Cc2cnn3c(C4CC4)cc(-c4ccc(C(F)(F)F)cc4)nc23)c1 [Example 79, 5-[7-Cyclopropyl-5-(4-trifluoromethyl-phenyl)-pyrazolo[1,5-a]pyrimidin-3-ylethynyl]-pyridine-3-sulfonic acid amide]
melting point: 276 to 277 °C

Cc1cc(-c2cc(C(F)F)n3ncc(C#Cc4ccc(S(=O)(=O)NC(C)(C)C)s4)c3n2)ccc1Cl [Example 171, 5-[5-(4-Chloro-3-methyl-phenyl)-7-difluoromethyl-pyrazolo[1,5-a]pyrimidin-3-ylethynyl]-thiophene-2-sulfonic acid tert-butylamide]
melting point: 220 °C

O=S(=O)(NC(CO)CO)c1ccc(C#Cc2cnn3c(C(F)(F)F)cc(-c4cccc(C(F)(F)F)c4)nc23)s1 [Example 271, 5-[7-Trifluoromethyl-5-(3-trifluoromethyl-phenyl)-pyrazolo[1,5-a]pyrimidin-3-ylethynyl]-thiophene-2-sulfonic acid (2-hydroxy-1-hydroxymethyl-ethyl)-amide]
melting point: 210 °C

Cc1cc(-c2cc(C(F)(F)F)n3ncc(C#Cc4cnc(N)nc4)c3n2)ccc1C(F)(F)F [Example 290, 5-[5-(3-Methyl-4-trifluoromethyl-phenyl)-7-trifluoromethyl-pyrazolo[1,5-a]pyrimidin-3-ylethynyl]-pyrimidin-2-ylamine]
melting point: 240 °C

Cc1cc(-c2cc(C(F)F)n3ncc(C#Cc4cc(S(N)(=O)=O)c(F)cc4F)c3n2)ccc1Cl [Example 174, 5-[5-(4-Chloro-3-methyl-phenyl)-7-difluoromethyl-pyrazolo[1,5-a]pyrimidin-3-ylethynyl]-2,4-difluoro-benzenesulfonamide]
melting point: 270 °C

Cc1cc(-c2cc(C(F)F)n3ncc(C#Cc4cccc(S(N)(=O)=O)c4)c3n2)ccc1Cl [Example 168, 3-[5-(4-Chloro-3-methyl-phenyl)-7-difluoromethyl-pyrazolo[1,5-a]pyrimidin-3-ylethynyl]-benzenesulfonamide]
melting point: 215 °C

Cc1cc(-c2ccc(C(F)(F)F)cc2)cn2c(C#Cc3ccc(S(N)(=O)=O)s3)cnc12 [Example 212, 5-[8-Methyl-6-(4-trifluoromethyl-phenyl)-imidazo[1,2-a]pyridin-3-ylethynyl]-thiophene-2-sulfonic acid amide]
melting point: 270 °C

CCCc1cc(-c2ccc(Cl)cc2)nc2c(C#Cc3ccc(N)nc3)cnn12 [Example 305, 5-[5-(4-Chloro-phenyl)-7-propyl-pyrazolo[1,5-a]pyrimidin-3-ylethynyl]-pyridin-2-ylamine]
melting point: 215 to 217 °C

NS(=O)(=O)c1ccc(C#Cc2cnc3c(C4CC4)cc(-c4ccc(C(F)(F)F)cc4)cn23)s1 [Example 224, 5-[8-Cyclopropyl-6-(4-trifluoromethyl-phenyl)-imidazo[1,2-a]pyridin-3-ylethynyl]-thiophene-2-sulfonic acid amide]
melting point: 261 °C

Nc1ccc(C#Cc2cnn3c(C(F)F)cc(-c4cccc(C(F)(F)F)c4)nc23)cn1 [Example 254, 5-[7-Difluoromethyl-5-(3-trifluoromethyl-phenyl)-pyrazolo[1,5-a]pyrimidin-3-ylethynyl]-pyridin-2-ylamine]
melting point: 164 °C

COCCNS(=O)(=O)c1ccc(C#Cc2cnn3c(C(F)F)cc(-c4ccc(C(F)(F)F)cc4)nc23)cc1 [Example 139, 4-[7-Difluoromethyl-5-(4-trifluoromethyl-phenyl)-pyrazolo[1,5-a]pyrimidin-3-ylethynyl]-N-(2-methoxy-ethyl)-benzenesulfonamide]
melting point: 184 to 186 °C

Nc1ncc(C#Cc2cnn3c(C4CC4)cc(-c4ccc(Cl)cc4)nc23)cn1 [Example 313, 5-[5-(4-Chloro-phenyl)-7-cyclopropyl-pyrazolo[1,5-a]pyrimidin-3-ylethynyl]-pyrimidin-2-ylamine]
melting point: 243 to 246 °C

CC(C)(C)OC(=O)NCCNS(=O)(=O)c1cc(C#Cc2cnn3c(C(F)F)cc(-c4ccc(C(F)(F)F)cc4)nc23)c(F)cc1F [Example 185, (2-{5-[7-Difluoromethyl-5-(4-trifluoromethyl-phenyl)-pyrazolo[1,5-a]pyrimidin-3-ylethynyl]-2,4-difluoro-benzenesulfonylamino}-ethyl)-carbamic acid tert-butyl ester]
melting point: 203 to 204 °C (dec.)

NS(=O)(=O)c1cccc(C#Cc2cnn3c(C4CC4)cc(-c4ccc(Cl)cc4)nc23)c1 [Example 72, 3-[5-(4-Chloro-phenyl)-7-cyclopropyl-pyrazolo[1,5-a]pyrimidin-3-ylethynyl]-benzenesulfonamide]
melting point: 236 to 237 °C

Cc1cc(-c2ccc(C(F)(F)F)cc2)nc2c(C#Cc3ccc(S(=O)(=O)NC(CO)CO)s3)cnn12 [Example 308, 5-[7-Methyl-5-(4-trifluoromethyl-phenyl)-pyrazolo[1,5-a]pyrimidin-3-ylethynyl]-thiophene-2-sulfonic acid (2-hydroxy-1-hydroxymethyl-ethyl)-amide]
melting point: 148 to 152 °C

O=S(=O)(c1cccc(C#Cc2cnn3c(C(F)F)cc(-c4ccc(C(F)(F)F)cc4)nc23)c1)N1CCOCC1 [Example 144, 7-Difluoromethyl-3-[3-(morpholine-4-sulfonyl)-phenylethynyl]-5-(4-trifluoromethyl-phenyl)-pyrazolo[1,5-a]pyrimidine]
melting point: 175 to 176 °C

O=S(=O)(NCCO)c1cccc(C#Cc2cnn3c(C(F)(F)F)cc(-c4ccc(C(F)(F)F)cc4)nc23)c1 [Example 132, N-(2-Hydroxy-ethyl)-3-[7-trifluoromethyl-5-(4-trifluoromethyl-phenyl)-pyrazolo[1,5-a]pyrimidin-3-ylethynyl]-benzenesulfonamide]
melting point: 213 °C

O=S(=O)(c1ccc(C#Cc2cnn3c(C(F)(F)F)cc(-c4ccc(C(F)(F)F)cc4)nc23)s1)N(CCO)CCO [Example 162, 5-[7-Trifluoromethyl-5-(4-trifluoromethyl-phenyl)-pyrazolo[1,5-a]pyrimidin-3-ylethynyl]-thiophene-2-sulfonic acid bis-(2-hydroxy-ethyl)-amide]
melting point: 137 °C

O=S(=O)(NCc1cccnc1)c1ccc(C#Cc2cnn3c(C(F)F)cc(-c4ccc(C(F)(F)F)cc4)nc23)s1 [Example 278, 5-[7-Difluoromethyl-5-(4-trifluoromethyl-phenyl)-pyrazolo[1,5-a]pyrimidin-3-ylethynyl]-thiophene-2-sulfonic acid (pyridin-3-ylmethyl)-amide]
melting point: 152 °C

Cc1cc(-c2ccc(C(F)(F)F)cc2)cn2c(C#Cc3cnc(N)nc3)cnc12 [Example 220, 5-[8-Methyl-6-(4-trifluoromethyl-phenyl)-imidazo[1,2-a]pyridin-3-ylethynyl]-pyrimidin-2-ylamine]
melting point: 236 °C

O=S(=O)(Nc1cccnc1)c1ccc(C#Cc2cnn3c(C(F)(F)F)cc(-c4ccc(C(F)(F)F)cc4)nc23)s1 [Example 279, 5-[7-Trifluoromethyl-5-(4-trifluoromethyl-phenyl)-pyrazolo[1,5-a]pyrimidin-3-ylethynyl]-thiophene-2-sulfonic acid pyridin-3-ylamide]
melting point: 248 °C
